These results are taken from the NIST ThermoML archive (doi:10.1021/je301294a).

Numbers after ± are expanded uncertainties.

For this data set the following is noted: Liquid, Closed cell (Static) method.

In the case of `CCCCCCCCCC(=O)OCC` [ethyl decanoate], the “vapor or sublimation pressure” value was determined as 0.5827 ± 0.036 kPa (373.15 K); 0.9771 ± 0.025 kPa (383.15 K); 1.586 ± 0.021 kPa (393.15 K); 2.498 ± 0.027 kPa (403.15 K); 3.829 ± 0.035 kPa (413.15 K); 5.726 ± 0.048 kPa (423.15 K). Besides, the “vapor or sublimation pressure” value runs as follows: (433.15 K) 8.371 ± 0.066 kPa; (443.15 K) 11.99 ± 0.091 kPa; (453.15 K) 16.84 ± 0.12 kPa.

On to `CCCCCC(=O)OCC` [ethyl hexanoate], for which the “vapor or sublimation pressure” value by setting is: (373.15 K) 11.35 ± 0.24 kPa; (383.15 K) 16.69 ± 0.14 kPa; (393.15 K) 23.94 ± 0.19 kPa; (403.15 K) 33.59 ± 0.27 kPa; (413.15 K) 46.18 ± 0.37 kPa; (423.15 K) 62.32 ± 0.49 kPa. Also, the “vapor or sublimation pressure” value by setting is: (433.15 K) 82.69 ± 0.65 kPa; (443.15 K) 108.02 ± 0.85 kPa; (453.15 K) 139.11 ± 1.1 kPa.

Take `CCCCCCCCCCCCCC(=O)OCC` [ethyl tetradecanoate]: the “vapor or sublimation pressure” value is recorded as 0.0326 ± 0.0025 kPa (373.15 K); 0.0623 ± 0.0044 kPa (383.15 K); 0.1143 ± 0.0078 kPa (393.15 K); 0.2019 ± 0.013 kPa (403.15 K); 0.3448 ± 0.022 kPa (413.15 K); 0.5712 ± 0.036 kPa (423.15 K). The “vapor or sublimation pressure” value is, setting by setting: (433.15 K) 0.9198 ± 0.024 kPa; (443.15 K) 1.443 ± 0.021 kPa; (453.15 K) 2.211 ± 0.025 kPa.

Take `CCCCCCCCCCCCCC` [tetradecane]: the “vapor or sublimation pressure” value is listed as 0.444 ± 0.028 kPa (373.15 K); 0.7516 ± 0.02 kPa (383.15 K); 1.23 ± 0.031 kPa (393.15 K); 1.954 ± 0.044 kPa (403.15 K); 3.017 ± 0.065 kPa (413.15 K); 4.543 ± 0.096 kPa (423.15 K). Also, the “vapor or sublimation pressure” value runs as follows: (433.15 K) 6.684 ± 0.14 kPa; (443.15 K) 9.627 ± 0.2 kPa; (453.15 K) 13.6 ± 0.1 kPa.
